ChEMBL document CHEMBL2169755, “A Divergent SAR Study Allows Optimization of a Potent 5-HT2c Inhibitor to a Promising Antimalarial Scaffold” (ACS Med Chem Lett, 2012)
≈ marks a conversion by molar mass, not a printed value. Calls of active or inactive are those of the source. No cut-off for these calls is given here.

What was measured:
[1] = Plasma protein binding in mouse at 1 ug/mL by equilibrium dialysis method; format: ADME, cell-free; conditions: read-out: PPB (converted)
Cytochrome P450 2C9 = Cytochrome P450 2C9 (Homo sapiens, UniProt P11712); assay: Inhibition of human CYP2C9 using 7-methoxy-4-triflouromethylcoumarin-3-acetic acid as substrate incubated for 30 mins prior to substrate addition measured up to 10 mins by fluorimetry; format: ADME
Chain of Cytochrome P450 2C9 (P11712 whole entry): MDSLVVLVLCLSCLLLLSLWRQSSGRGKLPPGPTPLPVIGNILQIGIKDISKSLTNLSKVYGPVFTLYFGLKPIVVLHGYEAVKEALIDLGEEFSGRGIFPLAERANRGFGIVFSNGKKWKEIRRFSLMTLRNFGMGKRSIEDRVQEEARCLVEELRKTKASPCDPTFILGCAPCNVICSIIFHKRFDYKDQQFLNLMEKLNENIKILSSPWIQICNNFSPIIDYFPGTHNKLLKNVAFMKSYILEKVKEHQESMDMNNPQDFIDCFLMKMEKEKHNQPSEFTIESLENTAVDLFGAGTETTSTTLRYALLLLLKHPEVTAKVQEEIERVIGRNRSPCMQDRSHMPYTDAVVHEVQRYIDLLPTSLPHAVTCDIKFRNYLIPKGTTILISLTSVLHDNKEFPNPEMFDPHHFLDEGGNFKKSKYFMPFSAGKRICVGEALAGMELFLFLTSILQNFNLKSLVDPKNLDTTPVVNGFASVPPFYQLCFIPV

Cytochrome P450 2D6 = Cytochrome P450 2D6 (Homo sapiens, UniProt P10635); assay: Inhibition of human CYP2D6 using 4-methylaminomethyl-7-methoxycoumarin as substrate incubated for 30 mins prior to substrate addition measured up to 10 mins by fluorimetry; format: ADME
Chain of Cytochrome P450 2D6 (P10635 whole entry): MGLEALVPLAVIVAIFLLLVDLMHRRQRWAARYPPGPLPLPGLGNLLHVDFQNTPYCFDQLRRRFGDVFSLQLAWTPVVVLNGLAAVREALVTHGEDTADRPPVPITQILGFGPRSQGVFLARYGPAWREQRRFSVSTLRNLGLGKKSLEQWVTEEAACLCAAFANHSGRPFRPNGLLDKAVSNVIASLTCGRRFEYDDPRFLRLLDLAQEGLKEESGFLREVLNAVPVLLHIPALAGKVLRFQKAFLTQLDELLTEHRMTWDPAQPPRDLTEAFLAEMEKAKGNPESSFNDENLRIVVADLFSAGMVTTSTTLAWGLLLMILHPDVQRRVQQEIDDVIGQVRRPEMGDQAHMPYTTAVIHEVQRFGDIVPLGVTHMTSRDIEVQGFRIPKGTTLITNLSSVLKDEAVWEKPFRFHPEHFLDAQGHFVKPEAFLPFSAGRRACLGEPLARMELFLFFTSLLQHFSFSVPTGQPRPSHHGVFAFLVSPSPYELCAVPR

Cytochrome P450 3A4 = Cytochrome P450 3A4 (Homo sapiens, UniProt P08684); assay: Inhibition of human CYP3A4 using 7-benzyloxyquinoline as substrate incubated for 30 mins prior to substrate addition measured up to 10 mins by fluorimetry; format: ADME
Chain of Cytochrome P450 3A4 (P08684 whole entry): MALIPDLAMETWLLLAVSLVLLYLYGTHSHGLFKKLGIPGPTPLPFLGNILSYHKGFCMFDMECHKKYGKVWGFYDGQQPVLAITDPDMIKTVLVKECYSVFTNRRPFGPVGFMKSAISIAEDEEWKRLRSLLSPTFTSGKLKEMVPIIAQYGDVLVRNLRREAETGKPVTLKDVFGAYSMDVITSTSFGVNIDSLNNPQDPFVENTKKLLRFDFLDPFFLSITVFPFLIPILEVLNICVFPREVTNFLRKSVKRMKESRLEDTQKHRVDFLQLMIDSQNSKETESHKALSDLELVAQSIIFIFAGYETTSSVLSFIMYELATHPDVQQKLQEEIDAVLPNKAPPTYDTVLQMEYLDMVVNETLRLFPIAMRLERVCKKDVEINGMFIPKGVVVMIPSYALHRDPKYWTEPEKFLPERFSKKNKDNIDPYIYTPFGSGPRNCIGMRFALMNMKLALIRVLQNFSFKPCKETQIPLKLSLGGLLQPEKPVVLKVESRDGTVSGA

Cytochrome P450 2C19 = Cytochrome P450 2C19 (Homo sapiens, UniProt P33261); assay: Inhibition of human CYP2C19 using 3-butyryl-7-methoxycoumarin as substrate incubated for 30 mins prior to substrate addition measured up to 10 mins by fluorimetry; format: ADME
Chain of Cytochrome P450 2C19 (P33261 whole entry): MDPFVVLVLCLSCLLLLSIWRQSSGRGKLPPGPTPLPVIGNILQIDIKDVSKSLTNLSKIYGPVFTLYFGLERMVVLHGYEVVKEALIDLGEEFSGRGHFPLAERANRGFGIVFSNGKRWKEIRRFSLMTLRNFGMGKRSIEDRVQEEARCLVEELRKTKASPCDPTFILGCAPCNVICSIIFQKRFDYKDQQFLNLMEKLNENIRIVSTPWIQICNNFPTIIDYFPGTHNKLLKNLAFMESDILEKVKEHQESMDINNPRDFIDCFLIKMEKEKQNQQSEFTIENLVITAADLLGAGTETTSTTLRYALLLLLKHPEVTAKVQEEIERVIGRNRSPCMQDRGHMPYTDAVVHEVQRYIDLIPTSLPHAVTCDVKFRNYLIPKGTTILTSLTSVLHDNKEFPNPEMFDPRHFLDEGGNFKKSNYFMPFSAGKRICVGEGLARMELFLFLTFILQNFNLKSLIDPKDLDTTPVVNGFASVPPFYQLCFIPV

[2] = biological target: Voltage-gated inwardly rectifying potassium channel KCNH2 (Homo sapiens, UniProt Q12809); assay: Displacement of Cy3b-tagged dofetilide from human ERG expressed in CHO cells by fluorescence polarization assay
Chain of Voltage-gated inwardly rectifying potassium channel KCNH2 (Q12809 whole entry): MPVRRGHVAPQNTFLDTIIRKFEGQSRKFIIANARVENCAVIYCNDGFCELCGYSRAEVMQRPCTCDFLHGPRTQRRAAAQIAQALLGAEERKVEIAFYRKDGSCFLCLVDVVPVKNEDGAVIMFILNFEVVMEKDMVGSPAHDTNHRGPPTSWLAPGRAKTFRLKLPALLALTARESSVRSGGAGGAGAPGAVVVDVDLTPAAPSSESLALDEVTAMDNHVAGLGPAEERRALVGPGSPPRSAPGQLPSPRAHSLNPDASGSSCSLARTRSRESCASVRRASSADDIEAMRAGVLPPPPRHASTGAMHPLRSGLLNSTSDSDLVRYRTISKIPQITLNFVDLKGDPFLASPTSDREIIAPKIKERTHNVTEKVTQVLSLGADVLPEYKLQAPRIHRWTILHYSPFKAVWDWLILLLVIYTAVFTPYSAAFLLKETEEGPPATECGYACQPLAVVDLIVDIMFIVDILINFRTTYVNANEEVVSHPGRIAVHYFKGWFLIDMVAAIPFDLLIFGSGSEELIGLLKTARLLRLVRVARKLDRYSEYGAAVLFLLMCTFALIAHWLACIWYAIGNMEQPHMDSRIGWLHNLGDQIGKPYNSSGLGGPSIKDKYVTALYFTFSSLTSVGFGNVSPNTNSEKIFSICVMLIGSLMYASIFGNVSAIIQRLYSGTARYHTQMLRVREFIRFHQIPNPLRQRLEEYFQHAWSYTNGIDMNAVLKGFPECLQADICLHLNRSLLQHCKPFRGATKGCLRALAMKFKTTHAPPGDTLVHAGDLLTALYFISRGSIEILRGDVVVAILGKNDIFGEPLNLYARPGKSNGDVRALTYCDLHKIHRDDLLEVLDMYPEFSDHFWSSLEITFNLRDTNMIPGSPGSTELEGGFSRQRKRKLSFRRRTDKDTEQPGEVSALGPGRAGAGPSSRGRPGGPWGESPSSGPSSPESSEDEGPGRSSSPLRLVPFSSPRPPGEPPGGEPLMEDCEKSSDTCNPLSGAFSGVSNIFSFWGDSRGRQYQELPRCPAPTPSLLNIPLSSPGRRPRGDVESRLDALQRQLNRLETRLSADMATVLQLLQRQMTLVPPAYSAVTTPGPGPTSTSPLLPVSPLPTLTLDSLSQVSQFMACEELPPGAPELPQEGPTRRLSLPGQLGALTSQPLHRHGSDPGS

[3] = Chromatographic hydrophobicity index of the compound at pH 2; format: physicochemical
[4] = Chromatographic hydrophobicity index of the compound at pH 7.4; format: physicochemical
[5] = Chromatographic hydrophobicity index of the compound at pH 10.5; format: physicochemical
[6] = Equilibrium solubility of the compound in phosphate buffer saline after 24 hrs by LC-MS analysis at pH 7.4; format: physicochemical
[7] = Equilibrium solubility of the compound in fasted state simulated intestinal fluid after 24 hrs by LC-MS analysis at pH 6.8; format: physicochemical
[8] = Equilibrium solubility of the compound in fed state simulated intestinal fluid after 24 hrs by LC-MS analysis at pH 5; format: physicochemical
Plasmodium falciparum [9] = assay: Antiplasmodial activity against Plasmodium falciparum 3D7A assessed as inhibition of [3H]hypoxanthine incorporation after 96 hrs by beta scintillation counting; format: functional, organism-based; conditions: 3D7 A
Plasmodium falciparum [10] = assay: Antiplasmodial activity against Plasmodium falciparum assessed as pyknotic phenotype at 10-fold IC50 after 24 hrs by Giemsa-staining method; format: functional, organism-based
Plasmodium falciparum [11] = assay: Antiplasmodial activity against Plasmodium falciparum 3D7A assessed as inhibition of [3H]hypoxanthine incorporation after 72 hrs by beta scintillation counting; format: functional, organism-based; conditions: 3D7 A
[12] = Equilibrium solubility of the compound in simulated gastric fluid after 24 hrs by LC-MS analysis at pH1.2; format: physicochemical; conditions: pH 1.2
Plasmodium falciparum [13] = assay: Selectivity ratio of IC50 for Plasmodium falciparum Dd2 to IC50 for Plasmodium falciparum HB3; format: functional
Plasmodium falciparum [14] = assay: Antiplasmodial activity against Plasmodium falciparum HB3 assessed as inhibition of [3H]hypoxanthine incorporation incubated for 24 hrs prior to [3H]hypoxanthine addition measured after 24 hrs by beta scintillation counting; format: functional, organism-based
Plasmodium falciparum [15] = assay: Antiplasmodial activity against Plasmodium falciparum Dd2 assessed as inhibition of [3H]hypoxanthine incorporation incubated for 24 hrs prior to [3H]hypoxanthine addition measured after 24 hrs by beta scintillation counting; format: functional, organism-based
[16] = biological target: T1, 5-hydroxytryptamine receptor 2C (Homo sapiens, UniProt P28335); assay: Inhibition of human 5HT2c receptor expressed in CHO-K1 cells assessed as inhibition of 5HT-induced calcium influx measured up to 30 secs by aequorin luminescence assay; format: functional, cell-based
T1 sequence (P28335 whole entry): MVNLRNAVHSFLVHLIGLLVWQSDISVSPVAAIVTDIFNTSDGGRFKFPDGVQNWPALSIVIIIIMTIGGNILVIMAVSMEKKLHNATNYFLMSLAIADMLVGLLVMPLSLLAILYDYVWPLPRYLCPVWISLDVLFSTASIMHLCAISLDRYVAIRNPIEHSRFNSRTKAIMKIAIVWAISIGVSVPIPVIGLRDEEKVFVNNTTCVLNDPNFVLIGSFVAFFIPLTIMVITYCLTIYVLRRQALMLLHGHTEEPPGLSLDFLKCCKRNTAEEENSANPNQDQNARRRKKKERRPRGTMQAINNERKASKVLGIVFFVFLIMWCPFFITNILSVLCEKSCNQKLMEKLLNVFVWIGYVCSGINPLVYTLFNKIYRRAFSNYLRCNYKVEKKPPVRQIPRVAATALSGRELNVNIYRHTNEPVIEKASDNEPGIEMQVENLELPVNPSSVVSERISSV

[17] = Cytotoxicity against human HepG2 cells after 48 hrs by resazurin reduction assay; format: cell-based; conditions: read-out: TC50
[18] = Cytotoxicity against mouse L1210 cells after 48 hrs by resazurin reduction assay; format: cell-based; conditions: read-out: TC50
[19] = Cytotoxicity against mouse Neuro2a cells after 48 hrs by resazurin reduction assay; format: cell-based, N2a; conditions: read-out: TC50
[20] = Cytotoxicity against rat H9c2(2-1) cells after 48 hrs by resazurin reduction assay; format: cell-based; conditions: read-out: TC50
[21] = Cytotoxicity against MDCK cells after 48 hrs by resazurin reduction assay; format: cell-based, Canis lupus familiaris; conditions: dog, read-out: TC50
Liver = assay: Intrinsic clearance in mouse liver microsomes at 0.5 uM by HPLC analysis; format: ADME, Microsome
Liver microsomes = assay: Intrinsic clearance in human liver microsomes at 0.5 uM by HPLC analysis; format: ADME, Microsome
Albumin = Albumin (Homo sapiens, UniProt P02768); assay: Binding affinity to human serum albumin by HPLC analysis; format: ADME; conditions: isolated protein
Chain of Albumin (P02768 whole entry): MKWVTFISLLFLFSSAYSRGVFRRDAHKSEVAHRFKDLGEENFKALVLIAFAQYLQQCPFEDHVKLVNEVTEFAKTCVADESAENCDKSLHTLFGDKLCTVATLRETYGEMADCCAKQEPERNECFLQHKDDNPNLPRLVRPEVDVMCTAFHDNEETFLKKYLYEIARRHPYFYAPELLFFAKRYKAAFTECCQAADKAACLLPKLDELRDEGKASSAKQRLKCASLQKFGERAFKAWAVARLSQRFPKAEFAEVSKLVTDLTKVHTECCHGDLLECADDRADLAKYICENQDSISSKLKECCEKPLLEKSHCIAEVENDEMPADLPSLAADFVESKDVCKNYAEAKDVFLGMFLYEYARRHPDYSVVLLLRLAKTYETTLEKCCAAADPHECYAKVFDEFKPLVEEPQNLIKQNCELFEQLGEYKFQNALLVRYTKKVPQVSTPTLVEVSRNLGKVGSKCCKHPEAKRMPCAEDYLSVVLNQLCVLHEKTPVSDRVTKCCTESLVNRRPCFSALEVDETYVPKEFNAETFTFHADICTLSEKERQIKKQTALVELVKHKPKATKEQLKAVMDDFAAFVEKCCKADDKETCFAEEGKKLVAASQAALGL

Plasmodium falciparum [22] = assay: microbe, parasite or virus in culture; conditions: 3D7 A
Description: Antiplasmodial activity against Plasmodium falciparum 3D7A assessed as inhibition of [3H]hypoxanthine incorporation incubated for 24 hrs prior to [3H]hypoxanthine addition measured after 24 hrs by beta scintillation counting

Plasmodium falciparum [23] = assay: Antiplasmodial activity against Plasmodium falciparum assessed as pyknotic phenotype after 24 hrs by Giemsa-staining method; format: functional, organism-based
Plasmodium berghei [24] = assay: Antimalarial activity against Plasmodium berghei ANKA infected in CD1 mouse assessed as inhibition of parasitemia at 50 mg/kg, po administered QD for 2 days measured after 4 days by YOYO1-based flow cytometric analysis relative to vehicle-treated control; format: functional
Plasmodium berghei [25] = assay: Antimalarial activity against Plasmodium berghei ANKA assessed as reduction in viable parasites at 10 times IC50 after 72 hrs; format: functional, organism-based

## COc1cc2c(cc1C(F)(F)F)N(C(=O)Nc1cc(OC(F)(F)F)cc(-c3cccnc3)c1)CC2
[1]
  fraction unbound at 1 ug/mL: 0.002
Cytochrome P450 2C9
  IC50: 2 µM
Cytochrome P450 2D6
  IC50: 13 µM
Cytochrome P450 3A4
  IC50: > 50 µM
Cytochrome P450 2C19
  IC50: > 50 µM
[2]
  Activity: > 16 µM
[3]
  CHI: 3.09
[4]
  CHI: 4.22
[5]
  CHI: 4.18
[6]
  solubility thermodynamic at 24 h: < 0.0001 mg/mL
[7]
  solubility thermodynamic at 24 h: < 0.0001 mg/mL
[8]
  solubility thermodynamic at 24 h: 0.0167 mg/mL (≈ 33.6 µM)
Plasmodium falciparum [9]
  IC50: 0.025 µM
Plasmodium falciparum [10]
  Activity: Active
Plasmodium falciparum [11]
  IC50: 0.04 µM
[12]
  solubility thermodynamic at 24 h: 1.55 mg/mL (≈ 3120 µM)
Plasmodium falciparum [13]
  Ratio IC50: >10
Plasmodium falciparum [14]
  IC50: 0.09 µM
Plasmodium falciparum [15]
  IC50: > 1 µM
[16]
  IC50: 0.05 µM
[17]
  CC50 at 48 h: 7 µM
[18]
  CC50 at 48 h: 3.2 µM
[19]
  CC50 at 48 h: > 12.5 µM
[20]
  CC50 at 48 h: > 12.5 µM
[21]
  CC50 at 48 h: > 12.5 µM
Liver
  CLH: < 0.3 mL/min/g
Liver microsomes
  CLH: < 0.3 mL/min/g
Albumin
  Activity: 97.8%

## COc1cc2c(cc1C(F)(F)F)N(C(=O)Nc1cc(OC(F)(F)F)cc(-c3ccc(C)nc3)c1)CC2
Plasmodium falciparum [15]
  IC50: 0.8 µM
Plasmodium falciparum [22]
  IC50: 0.29 µM

## O=C(Nc1cc(OC(F)(F)F)cc(-c2cccnc2)c1)N1CCc2cccc(F)c21
Plasmodium falciparum [15]
  IC50: 1.07 µM
[16]
  IC50: > 40 µM
Plasmodium falciparum [22]
  IC50: 0.41 µM

## O=C(Nc1cc(OC(F)(F)F)cc(-c2cccnc2)c1)N1CCc2cc(C(F)(F)F)ccc21
Plasmodium falciparum [22]
  IC50: 0.02 µM

## COc1cc2c(cc1C(F)(F)F)N(C(=O)Nc1cc(C)cc(OC(F)(F)F)c1)CC2
Plasmodium falciparum [22]
  IC50: > 5 µM

## COc1cc2c(cc1C(F)(F)F)N(C(=O)Nc1cc(Br)cc(-c3cccnc3)c1)CC2
Plasmodium falciparum [15]
  IC50: 1.1 µM
[16]
  IC50: 0.01 µM
Plasmodium falciparum [22]
  IC50: 0.16 µM

## COc1ccc2c(c1)N(C(=O)Nc1cc(OC(F)(F)F)cc(-c3cccnc3)c1)CC2
[16]
  IC50: 0.12 µM
Plasmodium falciparum [22]
  IC50: 0.09 µM

## COc1cc2c(cc1C(F)(F)F)N(C(=O)Nc1cccc(-c3cccnc3)c1)CC2
[16]
  IC50: 0.007 µM
Plasmodium falciparum [22]
  IC50: 4.45 µM

## CCc1nc(N)nc(N)c1-c1ccc(Cl)cc1 [PYRIMETHAMINE]
Plasmodium falciparum [15]
  IC50: > 40 µM
Plasmodium falciparum [22]
  IC50: 0.02 µM

## O=C(Nc1cc(OC(F)(F)F)cc(-c2cccnc2)c1)N1CCc2ccc(F)cc21
Plasmodium falciparum [15]
  IC50: 0.01 µM
[16]
  IC50: 0.6 µM
Liver
  CLH: 2.1 mL/min/g
Liver microsomes
  CLH: 0.5 mL/min/g
Plasmodium falciparum [22]
  IC50: 0.01 µM

## Cc1ccc2c(c1)CCN2C(=O)Nc1cc(OC(F)(F)F)cc(-c2cccnc2)c1
Plasmodium falciparum [15]
  IC50: 0.04 µM
Plasmodium falciparum [22]
  IC50: 0.01 µM

## CCN(CC)CCCC(C)Nc1ccnc2cc(Cl)ccc12 (stereo unspecified)
Plasmodium falciparum [23]
  Activity: Active

## COc1cc2c(cc1C(F)(F)F)N(C(=O)Nc1cc(-c3cccnc3)cc(C(F)(F)F)c1)CC2
Plasmodium falciparum [15]
  IC50: 0.81 µM
[16]
  IC50: 0.01 µM
Plasmodium falciparum [22]
  IC50: 0.14 µM

## COc1cc2c(cc1C(F)(F)F)N(C(=O)Nc1cc(OC(F)(F)F)cc(-c3cncnc3)c1)CC2
Plasmodium falciparum [15]
  IC50: > 1 µM
Plasmodium falciparum [22]
  IC50: 0.03 µM

## CN1CCN(c2ccc3c(c2)N(C(=O)Nc2cc(OC(F)(F)F)cc(-c4cccnc4)c2)CC3)CC1
[16]
  IC50: > 40 µM
Plasmodium falciparum [22]
  IC50: 0.49 µM

## O=C(Nc1cc(OC(F)(F)F)cc(-c2cccnc2)c1)N1CCc2cc(F)ccc21
Plasmodium falciparum [22]
  IC50: 0.01 µM

## COc1cc2c(cc1C(F)(F)F)N(C(=O)Nc1cc(F)cc(-c3cccnc3)c1)CC2
Plasmodium falciparum [15]
  IC50: 2.12 µM
[16]
  IC50: 0.01 µM
Plasmodium falciparum [22]
  IC50: 0.43 µM

## COc1cc2c(cc1C(F)(F)F)N(C(=O)Nc1cccc(OC(F)(F)F)c1)CC2
Plasmodium falciparum [22]
  IC50: > 5 µM

## CN1CCN(c2cc3c(cc2Cl)CCN3C(=O)Nc2cc(OC(F)(F)F)cc(-c3cccnc3)c2)CC1
Plasmodium berghei [24]
  inhibition in vivo at 50 mg/kg: 35%
Plasmodium berghei [25]
  Activity: Active
Plasmodium falciparum [15]
  IC50: 0.21 µM
[16]
  IC50: 10 µM
Plasmodium falciparum [22]
  IC50: 0.14 µM

## Cc1cc2c(cc1Cl)N(C(=O)Nc1cc(OC(F)(F)F)cc(-c3cccnc3)c1)CC2
Plasmodium falciparum [15]
  IC50: 0.14 µM
Plasmodium falciparum [22]
  IC50: 0.02 µM

## COc1cc2c(cc1C(F)(F)F)N(C(=O)Nc1cc(OC(F)(F)F)cc(-c3ccccc3)c1)CC2
Plasmodium falciparum [22]
  IC50: 2.26 µM

## C[C@@H]1CC[C@H]2[C@@H](C)C(=O)O[C@@H]3O[C@@]4(C)CC[C@@H]1[C@]32OO4 [ARTEMISININ]
Plasmodium falciparum [23]
  Activity: Active
Plasmodium falciparum [22]
  IC50: 0.02 µM

## O=C(Nc1cc(OC(F)(F)F)cc(-c2cccnc2)c1)N1CCc2ccc(CO)cc21
[16]
  IC50: 0.18 µM
Plasmodium falciparum [22]
  IC50: 0.4 µM

## Cc1ccc2c(c1)N(C(=O)Nc1cc(OC(F)(F)F)cc(-c3cccnc3)c1)CC2
Plasmodium falciparum [22]
  IC50: 0.03 µM

## COc1cc2c(cc1C(F)(F)F)N(C(=O)Nc1cc(OC(F)(F)F)cc(-c3cc[nH]c3)c1)CC2
Plasmodium falciparum [22]
  IC50: 1.07 µM

## COc1cc2c(cc1C(F)(F)F)N(C(=O)Nc1cc(Br)cc(OC(F)(F)F)c1)CC2
[16]
  IC50: 0.39 µM
Plasmodium falciparum [22]
  IC50: 4.84 µM

## O=C(Nc1cc(OC(F)(F)F)cc(-c2cccnc2)c1)N1CCc2ccc(Br)cc21
Plasmodium falciparum [15]
  IC50: 0.64 µM
Plasmodium falciparum [22]
  IC50: 0.19 µM

## O=C(Nc1cc(OC(F)(F)F)cc(-c2cccnc2)c1)N1CCc2ccc(Cl)cc21
Plasmodium falciparum [22]
  IC50: 0.15 µM

## O=C(Nc1cc(OC(F)(F)F)cc(-c2cccnc2)c1)N1CCc2ccccc21
Plasmodium falciparum [15]
  IC50: 0.02 µM
[16]
  IC50: 1.25 µM
Plasmodium falciparum [22]
  IC50: 0.01 µM
